Experimental data from US20180147767A1, “METHODS OF EXTRUDING MULTILAYER FIBERS” (THE BOARD OF TRUSTEES OF UNIVERSITY OF ILLINOIS, priority 2015, published 2018).

What was measured:
[1] = tested on: RAW 264.7 mouse macrophage cells and MDA-MB-231 human adenocarcinoma cells; assay: Co-localization and migration of macrophages and tumor cells co-cultured in multilayer alginate fibers (CellTracker confocal imaging, Pearson correlation factor, Coloc2); assay type: cell-based; conditions: for calculated correlation factor (Pearson): Day 4, drug at approximate IC50: 50 μM for ZA and Rac1, 50 nM for GEF; for migration and co-localization of macrophages with tumor cells: co-cultured fibers, four days of incubation, FIG. 6a
Description: Using CellTracker™-labeling and confocal fluorescence microscopy to quantify the co-localization of the tumor cells and macrophages in co-culture over time (FIG. 8). To calculate correlation factor, ImageJ Fiji with the Coloc2 plugin may be utilized. The images are split into separate channels for macrophages (a) and breast cancer (b) cells and despeckled to remove noise.

[2] = read-out: approximate IC50; cited from earlier work
[3] = tested on: RAW 264.7 mouse macrophage cells and MDA-MB-231 human adenocarcinoma cells; assay: Macrophage to tumor cell volume ratio per fiber (3D stack counting); conditions: Day 4, compared to the other samples
Description: CellTracker Green CM FDA dye and CellTracker CM-Dil dye (Life Technologies) were used to label RAW and 231 cells respectively according to manufacturer's instructions. Labeled 231 cells were dispersed in the alginate solution at a concentration of 5×10^6 cells/mL. Labeled RAW cells were dispersed in CaCl2 solution at a concentration of 4.5×10^7 cells/mL. After fiber generation, fibers were cut into approximately 20 mm sections and stored in 24-well cell culture plates containing media and pharmacological drugs. […] A vehicle control of 2% DMSO in cell culture media was also used. The cells were incubated at 37° C., 5% CO2 environment, with media changes every 2 days.

COc1cc2ncnc(Nc3ccc(F)c(Cl)c3)c2cc1OCCCN1CCOCC1 [GEF, Gefitinib]
calculated correlation factor (Pearson) [1]: decreases
migration and co-localization of macrophages with tumor cells [1]: distinct impairment of migration and co-localization

Cc1ccc(NC(=O)c2cccc(OCc3c(C)noc3C)c2)cc1S(N)(=O)=O [RAC, Rac1 Inhibitor II]
calculated correlation factor (Pearson) [1]: decreases
calculated correlation factor (Pearson) ([1]; listed as inhibitor of Rac1): return to anti-correlation comparable to initial seeding (Day 0)
inhibition of migration and co-localization (TC-Mϕ correlation compared to TC/Mϕ ratio) ([1]; FIG. 7b, straight and patterned fibers): highest inhibition of migration and co-localization
migration and co-localization of macrophages with tumor cells [1]: distinct impairment of migration and co-localization
IC50 [2]: ~50 µM
TC/Mϕ ratio [3]: significantly higher
